Assay results reported in US9428493B2, “Schweinfurthin analogues” (University of Iowa Research Foundation, priority 2012, dated 2016).

These molecules were tested on efflux pump (assay: efflux pump substrate activity).
Type: in vitro ADME
From the text: For the treatment of certain diseases, it may be beneficial to have a therapeutic agent that is not an efflux pump substrate. […] In one embodiment of the invention R^2 is (C1-C15)alkyl or (C2-C15) alkenyl. In one embodiment of the invention R^4 is (C1-C15)alkyl or (C2-C15)alkenyl. In one embodiment of the invention R^4 is (C1-C6)alkyl.

Row | Structure (SMILES) | efflux pump substrate
1 | COc1cc(/C=C/c2cc(OC)c3cc[nH]c3c2)cc2c1O[C@]1(C)CC[C@@H](O)C(C)(C)[C@H]1C2 [Compound 4, reference compound] | found to be an efflux pump substrate
2 | COc1cc(/C=C/c2cc(O)c3c(c2)C[C@@H]2C(C)(C)[C@H](O)CC[C@@]2(C)O3)cc2c1ccn2C [Compound 9] | diminished activity as efflux pump substrates compared to Compound 4
3 | COc1cc(/C=C/c2cc(O)c3c(CC=C(C)C)c[nH]c3c2)cc2c1O[C@]1(C)CC[C@@H](O)C(C)(C)[C@H]1C2 [Compound 10] | diminished activity as efflux pump substrates compared to Compound 4
4 | COc1cc(/C=C/c2cc(O)c3ccn(C)c3c2)cc2c1O[C@]1(C)CC[C@@H](O)C(C)(C)[C@H]1C2 [Compound 7] | diminished activity as efflux pump substrates compared to Compound 4
